Source: patent US11458091B2, “Compositions and methods for the treatment of opioid overdose” (Opiant Pharmaceuticals, Inc., priority 2016, dated 2022)
Like-named read-outs stand apart in the source and are kept apart here.

Legend:
[1] = clinical; conditions: human, in vivo; for concentration at 0 h: Hour 0.0; for concentration at 36 h: Hour 36.0; for concentration at 48 h: Hour 48.0; for concentration at 60 h: Hour 60.0; for concentration at 72 h: Hour 72.0; for concentration at 0.08 h: Hour 0.08; for concentration at 2 h: Hour 2.0; for concentration at 3 h: Hour 3.0; for Tmax: median; for concentration at 0.5 h: Hour 0.50; for concentration at 1 h: Hour 1.0; for concentration at 4 h: Hour 4.0
[2] = cited from earlier work
[3] = for AUCextrap / Cmax/D / Lambda z: mean
[4] = in vivo; cited from earlier work
[5] = Intranasal naltrexone with Intravail, AUC (data not presented); type: in vivo; conditions: effect of Intravail
From the text: This important difference could not be predicted based on structure of the opioid antagonists, or the function of these moieties as opioid antagonists.

[6] = set-up: increase of total exposure (AUC): reference not given here; conditions: intranasal formulation with […] Intravail, cited from earlier work
[7] = 1.5 mg, Mean plasma concentration of nalmefene, 1.5 mg IM
[8] = 1.5 mg, Mean plasma concentration of nalmefene, 1.5 mg IN
[9] = 3 mg, Mean plasma concentration of nalmefene, 3 mg + […] Intravail IN
[10] = 3 mg, Mean plasma concentration of nalmefene, 3 mg IN
[11] = 3 mg plus […] Intravail IN, N = 14

SMILES: C=C1CC[C@@]2(O)[C@H]3Cc4ccc(O)c5c4[C@@]2(CCN3CC2CC2)[C@H]1O5 [Nalmefene, 17-cyclopropylmethyl-4,5α-epoxy-6-methylenemorphinan-3,14-diol]
- half-life ([1]; 1.5 mg, 1.5 mg IN, mean, N = 14): 6.74 h
- concentration at 0 h [1, 7]: 0 ng/mL
- concentration at 36 h [1, 7]: 0 ng/mL
- concentration at 48 h [1, 7]: 0 ng/mL
- concentration at 60 h [1, 7]: 0 ng/mL
- concentration at 72 h [1, 7]: 0 ng/mL
- concentration at 0 h [1, 8]: 0 ng/mL
- concentration at 0.08 h [1, 8]: 0 ng/mL
- concentration at […] ([1]; 1.5 mg, Mean plasma concentration of nalmefene, 1.5 mg IN, Hour 0.75): 0.691 ng/mL
- concentration at 2 h [1, 8]: 0.872 ng/mL
- concentration at 3 h [1, 8]: 0.712 ng/mL
- concentration at 12 h ([1]; 1.5 mg, Mean plasma concentration of nalmefene, 1.5 mg IN, Hour 12.0): 0.141 ng/mL
- concentration at 30 h ([1]; 1.5 mg, Mean plasma concentration of nalmefene, 1.5 mg IN, Hour 30.0): 0 ng/mL
- concentration at 36 h [1, 8]: 0 ng/mL
- concentration at 48 h [1, 8]: 0 ng/mL
- concentration at 60 h [1, 8]: 0 ng/mL
- concentration at 72 h [1, 8]: 0 ng/mL
- Tmax ([1]; 1.5 mg, 1.5 mg IN, N = 14): 2 h
- AUC(0-t) ([1]; 3 mg, AUC0-t, 3 mg plus […] Intravail IN, mean, N = 14): 17.3 ng·h/mL
- half-life ([1]; 3 mg, 3 mg IN, mean, N = 14): 7.84 h
- half-life ([1]; 3 mg, 3 mg plus […] Intravail IN, mean, N = 14): 6.78 h
- concentration at 0 h [1, 9]: 0 ng/mL
- concentration at 0.08 h [1, 9]: 0.931 ng/mL
- concentration at […] ([1]; 3 mg, Mean plasma concentration of nalmefene, 3 mg + […] Intravail IN, Hour 0.17): 3.69 ng/mL
- concentration at […] ([1]; 3 mg, Mean plasma concentration of nalmefene, 3 mg + […] Intravail IN, Hour 0.25): 4.38 ng/mL
- concentration at […] ([1]; 3 mg, Mean plasma concentration of nalmefene, 3 mg + […] Intravail IN, Hour 0.33): 3.53 ng/mL
- concentration at 0.5 h [1, 9]: 3.2 ng/mL
- concentration at 1 h [1, 9]: 2.54 ng/mL
- concentration at 2 h [1, 9]: 1.99 ng/mL
- concentration at 3 h [1, 9]: 1.57 ng/mL
- concentration at 4 h [1, 9]: 1.32 ng/mL
- concentration at 6 h ([1]; 3 mg, Mean plasma concentration of nalmefene, 3 mg + […] Intravail IN, Hour 6.0): 0.91 ng/mL
- concentration at 36 h [1, 9]: 0.0149 ng/mL
- concentration at 48 h [1, 9]: 0 ng/mL
- concentration at 60 h [1, 9]: 0 ng/mL
- concentration at 72 h [1, 9]: 0 ng/mL
- concentration at 0 h [1, 10]: 0 ng/mL
- concentration at 0.08 h [1, 10]: 0 ng/mL
- concentration at […] ([1]; 3 mg, Mean plasma concentration of nalmefene, 3 mg IN, Hour 0.25): 0.392 ng/mL
- concentration at 0.5 h [1, 10]: 1.01 ng/mL
- concentration at […] ([1]; 3 mg, Mean plasma concentration of nalmefene, 3 mg IN, Hour 0.75): 1.4 ng/mL
- concentration at 1 h [1, 10]: 1.68 ng/mL
- concentration at 3 h [1, 10]: 1.53 ng/mL
- concentration at 4 h [1, 10]: 1.22 ng/mL
- concentration at 24 h ([1]; 3 mg, Mean plasma concentration of nalmefene, 3 mg IN, Hour 24.0): 0.125 ng/mL
- concentration at 48 h [1, 10]: 0 ng/mL
- concentration at 60 h [1, 10]: 0 ng/mL
- concentration at 72 h [1, 10]: 0 ng/mL
- Tmax ([1]; 3 mg, 3 mg IN, N = 14): 2 h
- potency versus naloxone ([2]; milligram-per-milligram basis): equipotent on a milligram-per-milligram basis
- clearance ([2]; versus naloxone): slower than naloxone
- Mean plasma concentration of nalmefene ([3]; 1.5 mg IM, Hour 0.08): 0.457 ng/mL
- Mean plasma concentration of nalmefene ([3]; 1.5 mg IM, Hour 0.17): 1.01 ng/mL
- Mean plasma concentration of nalmefene ([3]; 1.5 mg IM, Hour 0.25): 1.43 ng/mL
- Mean plasma concentration of nalmefene ([3]; 1.5 mg IM, Hour 0.33): 1.33 ng/mL
- Mean plasma concentration of nalmefene ([3]; 1.5 mg IM, Hour 0.50): 1.19 ng/mL
- Mean plasma concentration of nalmefene ([3]; 1.5 mg IM, Hour 0.75): 1.14 ng/mL
- Mean plasma concentration of nalmefene ([3]; 1.5 mg IM, Hour 1.0): 1.08 ng/mL
- Mean plasma concentration of nalmefene ([3]; 1.5 mg IM, Hour 2.0): 1.03 ng/mL
- Mean plasma concentration of nalmefene ([3]; 1.5 mg IM, Hour 3.0): 0.878 ng/mL
- Mean plasma concentration of nalmefene ([3]; 1.5 mg IM, Hour 4.0): 0.798 ng/mL
- Mean plasma concentration of nalmefene ([3]; 1.5 mg IM, Hour 6.0): 0.688 ng/mL
- Mean plasma concentration of nalmefene ([3]; 1.5 mg IM, Hour 8.0): 0.603 ng/mL
- Mean plasma concentration of nalmefene ([3]; 1.5 mg IM, Hour 12.0): 0.470 ng/mL
- Mean plasma concentration of nalmefene ([3]; 1.5 mg IM, Hour 16.0): 0.298 ng/mL
- Mean plasma concentration of nalmefene ([3]; 1.5 mg IM, Hour 24.0): 0.128 ng/mL
- Mean plasma concentration of nalmefene ([3]; 1.5 mg IM, Hour 30.0): 0.0740 ng/mL
- AUCextrap ([3]; 1.5 mg IM, N = 13): 22.6%
- Cmax/D ([3]; 1.5 mg IM, N = 13): 1.12 ng/mL/mg
- Lambda z ([3]; 1.5 mg IM, N = 13): 0.094 h⁻¹
- AUCextrap ([3]; 1.5 mg IN, N = 14): 30.6%
- Cmax/D ([3]; 1.5 mg IN, N = 14): 0.646 ng/mL/mg
- Lambda z ([3]; 1.5 mg IN, N = 14): 0.131 h⁻¹
- AUCextrap ([3]; 3 mg IN, N = 14): 17.9%
- Cmax/D ([3]; 3 mg IN, N = 14): 0.731 ng/mL/mg
- Lambda z ([3]; 3 mg IN, N = 14): 0.101 h⁻¹
- AUCextrap [3, 11]: 14.6%
- Cmax/D [3, 11]: 1.65 ng/mL/mg
- Lambda z [3, 11]: 0.117 h⁻¹
- incidence of common adverse reactions (nausea, vomiting, tachycardia, hypertension, postoperative pain, fever, dizziness, headache, chills, hypotension, vasodilation) [4]: greater than 1%

SMILES: O=C1CC[C@@]2(O)[C@H]3Cc4ccc(O)c5c4[C@@]2(CCN3CC2CC2)[C@H]1O5 [naltrexone, 17-(cyclopropylmethyl)-4,5α-epoxy-3,14-dihydroxymorphinan-6-one]
- AUC [5]: increased significantly

SMILES: CNS(=O)(=O)Cc1ccc2[nH]cc(CCN(C)C)c2c1 [sumatriptan]
- increase of maximum plasma concentration ([6]; in comparison to Imitrex nasal spray): almost four-fold
- Tmax [6]: 8 to 10 min
- increase of total exposure (AUC) [6]: 32%
